Earlier results in patent US20050202566A1, “Device and method for determining parameters” (priority 2002, published 2005).

System: thrombus formation
Settings: ex vivo flow models using whole blood; with increasing shear

SMILES	inhibition of thrombus formation as a function of shear
O=C(O)COc1ccc(CCNS(=O)(=O)c2ccccc2)s1 [Linotroban]	increasingly inhibit thrombus formation
CC(=O)Oc1ccccc1C(=O)O [aspirin]	increasingly inhibit thrombus formation
